Test results from PMC9234961 (Journal of Medicinal Chemistry, 2022).
Where two headings read alike, the source gives them in different places.

Assays:
kinases (468) [1] = target: kinases (468) (Homo sapiens, UniProt P23458); conditions: 1000 nM
kinases (468) [2] = target: kinases (468) (Homo sapiens, UniProt Q9NSY1); conditions: BIKE (BMP2K); 1000 nM
kinases (468) [3] = target: kinases (468) (Homo sapiens, UniProt Q9NYY3); conditions: PLK2; 1000 nM
kinases (468) [4] = target: kinases (468) (Homo sapiens, UniProt Q8WXR4); conditions: MYO3B; 1000 nM
kinases (468) [5] = target: kinases (468) (Homo sapiens, UniProt P42679); conditions: CTK (MATK); 1000 nM
kinases (468) [6] = target: kinases (468) (Homo sapiens, UniProt P29322); conditions: EPHA8; 1000 nM
kinases (468) [7] = target: kinases (468) (Homo sapiens, UniProt Q8N752); conditions: CSNK1A1L; 1000 nM
kinases (468) [8] = target: kinases (468) (Homo sapiens, UniProt Q9NYL2); conditions: kinase ZAK (Entrez ZAK); compound concentration 1000 nM
kinases (468) [9] = target: kinases (468) (Homo sapiens, UniProt P54762); conditions: EPHB1; 1000 nM
kinases (468) [10] = target: kinases (468) (Homo sapiens, UniProt Q16566); conditions: CAMK4; 1000 nM
kinases (468) [11] = target: kinases (468) (Homo sapiens, UniProt Q6DT37); conditions: DMPK2 (CDC42BPG); 1000 nM
kinases (468) [12] = target: kinases (468) (Homo sapiens, UniProt P10721, A829P); conditions: KIT(A829P); 1000 nM
kinases (468) [13] = target: kinases (468) (Homo sapiens, UniProt O14733); conditions: MKK7 (MAP2K7); 1000 nM
kinases (468) [14] = target: kinases (468) (Homo sapiens, UniProt P22607); conditions: FGFR3; 1000 nM
kinases (468) [15] = target: kinases (468) (Homo sapiens, UniProt P27448); conditions: MARK3; 1000 nM
kinases (468) [16] = target: kinases (468) (Homo sapiens, UniProt P0C1S8); conditions: kinase WEE2 (Entrez WEE2); compound concentration 1000 nM
kinases (468) [17] = target: kinases (468) (Homo sapiens, UniProt Q9H4B4); conditions: PLK3; 1000 nM
kinases (468) [18] = target: kinases (468) (Homo sapiens, UniProt Q13163); conditions: MEK5 (MAP2K5); 1000 nM
kinases (468) [19] = target: kinases (468) (Homo sapiens, UniProt O14976); conditions: GAK; 1000 nM
kinases (468) [20] = target: kinases (468) (Homo sapiens, UniProt Q9Y4K4); conditions: MAP4K5; 1000 nM
kinases (468) [21] = target: kinases (468) (Homo sapiens, UniProt O14920); conditions: IKK-beta (IKBKB); 1000 nM
kinases (468) [22] = target: kinases (468) (Homo sapiens, UniProt Q00532); conditions: CDKL1; 1000 nM
kinases (468) [23] = target: kinases (468) (Homo sapiens, UniProt P07947); conditions: kinase YES (Entrez YES1); compound concentration 1000 nM
kinases (468) [24] = target: kinases (468) (Homo sapiens, UniProt O00750); conditions: PIK3C2B; 1000 nM
kinases (468) [25] = target: kinases (468) (Homo sapiens, UniProt Q13177); conditions: PAK2; 1000 nM
kinases (468) [26] = target: kinases (468) (Homo sapiens, UniProt O15111); conditions: IKK-alpha (CHUK); 1000 nM
kinases (468) [27] = target: kinases (468) (Homo sapiens, UniProt Q9BYT3); conditions: kinase STK33 (Entrez STK33); compound concentration 1000 nM
kinases (468) [28] = target: kinases (468) (Homo sapiens, UniProt Q9P289); conditions: MST4; 1000 nM
kinases (468) [29] = target: kinases (468) (Homo sapiens, UniProt O00506); conditions: kinase YSK1 (Entrez STK25); compound concentration 1000 nM
kinases (468) [30] = target: kinases (468) (Homo sapiens, UniProt P15056, V600E); conditions: BRAF(V600E); 1000 nM
kinases (468) [31] = target: kinases (468) (Homo sapiens, UniProt Q9UF33); conditions: EPHA6; 1000 nM
kinases (468) [32] = target: kinases (468) (Homo sapiens, UniProt P78362); conditions: kinase SRPK2 (Entrez SRPK2); compound concentration 1000 nM
kinases (468) [33] = target: kinases (468) (Homo sapiens, UniProt P42336, Q546K); conditions: PIK3CA(Q546K); 1000 nM
kinases (468) [34] = target: kinases (468) (Homo sapiens, UniProt Q9Y616); conditions: IRAK3; 1000 nM
kinases (468) [35] = target: kinases (468) (Homo sapiens, UniProt P48730); conditions: CSNK1D; 1000 nM

Chain of kinases (468) (Homo sapiens, UniProt P23458) (P23458 whole entry): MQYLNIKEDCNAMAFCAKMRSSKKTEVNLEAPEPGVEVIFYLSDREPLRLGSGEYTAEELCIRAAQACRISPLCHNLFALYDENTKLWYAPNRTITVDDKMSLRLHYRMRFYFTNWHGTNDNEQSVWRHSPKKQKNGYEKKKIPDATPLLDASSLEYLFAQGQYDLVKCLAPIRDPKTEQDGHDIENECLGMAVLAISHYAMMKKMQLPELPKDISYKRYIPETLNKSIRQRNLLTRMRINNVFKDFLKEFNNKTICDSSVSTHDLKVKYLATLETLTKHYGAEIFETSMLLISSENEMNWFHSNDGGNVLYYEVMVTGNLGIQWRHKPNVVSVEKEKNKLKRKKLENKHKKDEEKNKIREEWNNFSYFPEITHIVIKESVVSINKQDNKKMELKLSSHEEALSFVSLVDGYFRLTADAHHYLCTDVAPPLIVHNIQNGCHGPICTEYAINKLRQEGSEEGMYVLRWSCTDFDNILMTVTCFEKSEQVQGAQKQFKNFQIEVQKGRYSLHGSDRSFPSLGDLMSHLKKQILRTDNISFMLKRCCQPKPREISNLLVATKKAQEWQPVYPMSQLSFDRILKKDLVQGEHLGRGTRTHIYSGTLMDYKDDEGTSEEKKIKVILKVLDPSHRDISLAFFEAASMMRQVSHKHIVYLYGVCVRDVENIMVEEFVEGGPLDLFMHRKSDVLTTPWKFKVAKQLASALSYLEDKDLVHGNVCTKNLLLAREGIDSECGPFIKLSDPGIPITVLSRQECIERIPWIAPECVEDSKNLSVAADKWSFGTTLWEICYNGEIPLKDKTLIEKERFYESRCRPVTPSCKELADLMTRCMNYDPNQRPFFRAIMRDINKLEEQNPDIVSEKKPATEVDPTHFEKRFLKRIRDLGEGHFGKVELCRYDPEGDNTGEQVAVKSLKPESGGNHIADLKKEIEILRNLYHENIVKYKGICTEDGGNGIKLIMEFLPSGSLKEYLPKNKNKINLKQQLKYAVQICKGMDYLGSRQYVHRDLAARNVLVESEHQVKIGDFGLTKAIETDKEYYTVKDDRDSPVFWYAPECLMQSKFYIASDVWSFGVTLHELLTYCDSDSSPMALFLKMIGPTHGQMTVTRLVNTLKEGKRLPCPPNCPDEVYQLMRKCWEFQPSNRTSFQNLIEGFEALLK
Chain of kinases (468) (Homo sapiens, UniProt O14733) (O14733 whole entry): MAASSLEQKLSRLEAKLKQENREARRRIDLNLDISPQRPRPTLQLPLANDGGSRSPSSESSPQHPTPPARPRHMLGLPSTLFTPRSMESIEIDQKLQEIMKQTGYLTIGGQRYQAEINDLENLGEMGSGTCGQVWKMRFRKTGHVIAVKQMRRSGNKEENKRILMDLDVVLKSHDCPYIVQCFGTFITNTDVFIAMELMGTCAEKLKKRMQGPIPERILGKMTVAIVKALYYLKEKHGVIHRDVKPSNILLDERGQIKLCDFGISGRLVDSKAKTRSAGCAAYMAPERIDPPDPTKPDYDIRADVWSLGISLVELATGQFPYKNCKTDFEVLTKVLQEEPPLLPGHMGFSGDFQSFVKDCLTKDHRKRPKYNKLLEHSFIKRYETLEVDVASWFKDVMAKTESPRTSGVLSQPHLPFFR
Chain of kinases (468) (Homo sapiens, UniProt P29322) (P29322 28-1005): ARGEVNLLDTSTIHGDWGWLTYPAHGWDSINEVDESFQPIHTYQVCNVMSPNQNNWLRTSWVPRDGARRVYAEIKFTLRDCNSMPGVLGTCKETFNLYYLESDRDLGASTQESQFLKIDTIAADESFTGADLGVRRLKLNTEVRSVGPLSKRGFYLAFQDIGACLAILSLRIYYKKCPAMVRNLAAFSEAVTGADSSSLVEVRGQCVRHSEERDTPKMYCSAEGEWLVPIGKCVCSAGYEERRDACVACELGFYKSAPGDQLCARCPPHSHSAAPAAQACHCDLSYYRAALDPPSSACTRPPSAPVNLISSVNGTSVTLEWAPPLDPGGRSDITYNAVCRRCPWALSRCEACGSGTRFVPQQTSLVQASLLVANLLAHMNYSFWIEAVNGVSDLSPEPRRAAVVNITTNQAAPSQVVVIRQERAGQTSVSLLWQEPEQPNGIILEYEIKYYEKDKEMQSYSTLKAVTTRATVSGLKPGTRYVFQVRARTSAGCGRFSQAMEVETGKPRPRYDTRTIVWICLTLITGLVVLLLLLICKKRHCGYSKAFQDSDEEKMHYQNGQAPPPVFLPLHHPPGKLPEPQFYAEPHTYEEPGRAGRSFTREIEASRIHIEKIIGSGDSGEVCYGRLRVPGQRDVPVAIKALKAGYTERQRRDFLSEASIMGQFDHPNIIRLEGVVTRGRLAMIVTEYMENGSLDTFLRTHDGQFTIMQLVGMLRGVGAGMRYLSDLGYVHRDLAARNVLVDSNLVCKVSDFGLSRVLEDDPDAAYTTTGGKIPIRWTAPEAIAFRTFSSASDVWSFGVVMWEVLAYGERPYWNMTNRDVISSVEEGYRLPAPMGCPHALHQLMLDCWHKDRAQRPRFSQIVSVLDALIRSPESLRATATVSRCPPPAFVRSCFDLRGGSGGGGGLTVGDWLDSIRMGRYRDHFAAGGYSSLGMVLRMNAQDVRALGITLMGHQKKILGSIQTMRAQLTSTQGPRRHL
Chain of kinases (468) (Homo sapiens, UniProt Q9NYL2) (Q9NYL2 whole entry): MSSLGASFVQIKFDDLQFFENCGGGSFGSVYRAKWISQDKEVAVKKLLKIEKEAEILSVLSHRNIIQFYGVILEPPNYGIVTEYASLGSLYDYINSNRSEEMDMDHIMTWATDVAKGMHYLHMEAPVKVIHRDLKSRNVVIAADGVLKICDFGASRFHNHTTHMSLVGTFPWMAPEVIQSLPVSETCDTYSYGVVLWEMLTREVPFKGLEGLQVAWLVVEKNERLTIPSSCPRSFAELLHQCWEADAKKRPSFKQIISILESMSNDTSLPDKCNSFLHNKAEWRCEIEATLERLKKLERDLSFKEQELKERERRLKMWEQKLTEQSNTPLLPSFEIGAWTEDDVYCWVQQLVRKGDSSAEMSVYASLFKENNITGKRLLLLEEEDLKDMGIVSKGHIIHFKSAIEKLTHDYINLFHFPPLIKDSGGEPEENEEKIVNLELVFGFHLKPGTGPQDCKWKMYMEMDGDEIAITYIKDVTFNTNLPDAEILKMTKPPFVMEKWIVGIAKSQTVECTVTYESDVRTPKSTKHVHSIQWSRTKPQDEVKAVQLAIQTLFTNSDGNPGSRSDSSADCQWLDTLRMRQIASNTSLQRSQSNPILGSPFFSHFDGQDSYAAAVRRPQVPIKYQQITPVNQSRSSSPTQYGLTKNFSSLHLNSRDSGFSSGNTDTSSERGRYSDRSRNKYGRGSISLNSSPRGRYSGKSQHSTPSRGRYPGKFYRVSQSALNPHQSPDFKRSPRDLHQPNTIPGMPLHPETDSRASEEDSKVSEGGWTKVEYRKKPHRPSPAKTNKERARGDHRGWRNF
Chain of kinases (468) (Homo sapiens, UniProt Q8WXR4) (Q8WXR4 whole entry): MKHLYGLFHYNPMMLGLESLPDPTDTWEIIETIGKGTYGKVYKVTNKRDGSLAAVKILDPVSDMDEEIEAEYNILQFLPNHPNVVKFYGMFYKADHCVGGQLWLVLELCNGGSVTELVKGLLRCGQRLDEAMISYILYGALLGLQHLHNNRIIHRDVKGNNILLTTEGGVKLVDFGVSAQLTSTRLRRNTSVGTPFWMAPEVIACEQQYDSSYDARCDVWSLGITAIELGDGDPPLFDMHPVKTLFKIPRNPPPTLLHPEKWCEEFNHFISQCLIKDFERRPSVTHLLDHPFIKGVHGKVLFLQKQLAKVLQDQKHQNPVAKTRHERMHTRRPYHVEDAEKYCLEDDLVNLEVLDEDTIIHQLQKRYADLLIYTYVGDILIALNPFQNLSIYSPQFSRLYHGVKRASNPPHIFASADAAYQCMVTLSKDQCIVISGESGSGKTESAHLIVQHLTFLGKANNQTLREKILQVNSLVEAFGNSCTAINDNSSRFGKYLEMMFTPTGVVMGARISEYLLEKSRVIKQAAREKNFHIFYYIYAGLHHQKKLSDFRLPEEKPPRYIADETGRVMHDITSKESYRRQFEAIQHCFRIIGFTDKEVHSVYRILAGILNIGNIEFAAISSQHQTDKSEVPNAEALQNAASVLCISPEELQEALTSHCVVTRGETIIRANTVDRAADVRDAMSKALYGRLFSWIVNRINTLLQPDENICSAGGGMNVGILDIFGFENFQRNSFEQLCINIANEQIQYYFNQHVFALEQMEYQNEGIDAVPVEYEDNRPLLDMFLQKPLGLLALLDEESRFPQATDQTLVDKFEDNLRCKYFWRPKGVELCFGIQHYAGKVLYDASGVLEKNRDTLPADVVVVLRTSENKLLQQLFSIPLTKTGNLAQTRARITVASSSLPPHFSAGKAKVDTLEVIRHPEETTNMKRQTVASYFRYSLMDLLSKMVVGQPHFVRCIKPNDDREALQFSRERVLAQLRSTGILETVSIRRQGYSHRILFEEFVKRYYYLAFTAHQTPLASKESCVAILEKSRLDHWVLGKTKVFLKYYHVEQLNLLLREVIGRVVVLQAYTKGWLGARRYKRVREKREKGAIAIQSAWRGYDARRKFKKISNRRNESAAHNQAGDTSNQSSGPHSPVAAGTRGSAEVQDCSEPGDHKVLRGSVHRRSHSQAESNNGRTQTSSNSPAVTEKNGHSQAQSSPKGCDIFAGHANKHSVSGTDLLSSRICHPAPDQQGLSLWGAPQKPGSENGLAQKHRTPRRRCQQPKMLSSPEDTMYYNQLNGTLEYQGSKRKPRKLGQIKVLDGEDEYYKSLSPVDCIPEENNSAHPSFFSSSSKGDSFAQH
Chain of kinases (468) (Homo sapiens, UniProt Q00532) (Q00532 whole entry): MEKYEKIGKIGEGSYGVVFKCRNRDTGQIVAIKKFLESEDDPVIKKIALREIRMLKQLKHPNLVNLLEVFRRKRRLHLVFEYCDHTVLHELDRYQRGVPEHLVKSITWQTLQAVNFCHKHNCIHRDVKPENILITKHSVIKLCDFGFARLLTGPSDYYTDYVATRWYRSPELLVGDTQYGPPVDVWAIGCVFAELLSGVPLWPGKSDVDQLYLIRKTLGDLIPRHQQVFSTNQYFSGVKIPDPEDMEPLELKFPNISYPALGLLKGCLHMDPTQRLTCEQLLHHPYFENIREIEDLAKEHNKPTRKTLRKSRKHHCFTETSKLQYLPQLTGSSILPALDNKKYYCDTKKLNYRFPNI

C[C@H]1C[C@@H](O)CN(c2ncc(Cl)c(Nc3ccc4c(c3)c3c(c(=O)n4C)OCC(F)(F)[C@H](C4CC4)N3)n2)C1 [CCT373566_9A]
Percent Control (kinases (468) [1]; JAK1(JH1domain-catalytic)): 100% | Percent Control (kinases (468) [1]; JAK1(JH2domain-pseudokinase)): 90% | Percent Control (kinases (468) [2]): 100% | Percent Control (kinases (468) [3]): 87% | Percent Control (kinases (468) [4]): 100% | Percent Control (kinases (468) [5]): 100% | Percent Control (kinases (468) [6]): 100% | Percent Control (kinases (468) [7]): 96% | Percent Control (kinases (468) [8]): 98% | Percent Control (kinases (468) [9]): 99% | Percent Control (kinases (468) [10]): 100% | Percent Control (kinases (468) [11]): 100% | Percent Control (kinases (468) [12]): 100% | Percent Control (kinases (468) [13]): 91% | Percent Control (kinases (468) [14]): 100% | Percent Control (kinases (468) [15]): 89% | Percent Control (kinases (468) [16]): 93% | Percent Control (kinases (468) [17]): 78% | Percent Control (kinases (468) [18]): 100% | Percent Control (kinases (468) [19]): 86% | Percent Control (kinases (468) [20]): 85% | Percent Control (kinases (468) [21]): 91% | Percent Control (kinases (468) [22]): 97% | Percent Control (kinases (468) [23]): 99% | Percent Control (kinases (468) [24]): 100% | Percent Control (kinases (468) [25]): 100% | Percent Control (kinases (468) [26]): 99% | Percent Control (kinases (468) [27]): 100% | Percent Control (kinases (468) [28]): 100% | Percent Control (kinases (468) [29]): 91% | Percent Control (kinases (468) [30]): 100% | Percent Control (kinases (468) [31]): 100% | Percent Control (kinases (468) [32]): 100% | Percent Control (kinases (468) [33]): 89% | Percent Control (kinases (468) [34]): 100% | Percent Control (kinases (468) [35]): 99%
